This is an account of results in US10669238B2, “Irreversible bruton's tyrosine kinase inhibitor” (HEFEI INSTITUTES OF PHYSICAL SCIENCE, CHINESE ACADEMY OF …, priority 2016, dated 2020).

In test [1] the target is BTK WT (Homo sapiens, UniProt Q06187). As to the kind of experiment: Btk cell-free kinase assay, BTK WT protein. The test is classed as biochemical. Conditions: compound 30 mins at room temperature, then 100 μM ATP 20 min at 37° C.; read-out: EC50 against BTK WT protein. An excerpt: (§1) The BTK wild-type plasmid and the BTK mutant plasmid (C481S) were respectively transfected into SF9 cells (purchased from invitrogen), and after three generations of virus amplification, the P3-generation virus was used to transfect SF9 cells which were collected after 72-hour culture to obtain protein BTK WT and protein BTK C481S, which were then purified.
BTK WT, sequence (Q06187 whole entry): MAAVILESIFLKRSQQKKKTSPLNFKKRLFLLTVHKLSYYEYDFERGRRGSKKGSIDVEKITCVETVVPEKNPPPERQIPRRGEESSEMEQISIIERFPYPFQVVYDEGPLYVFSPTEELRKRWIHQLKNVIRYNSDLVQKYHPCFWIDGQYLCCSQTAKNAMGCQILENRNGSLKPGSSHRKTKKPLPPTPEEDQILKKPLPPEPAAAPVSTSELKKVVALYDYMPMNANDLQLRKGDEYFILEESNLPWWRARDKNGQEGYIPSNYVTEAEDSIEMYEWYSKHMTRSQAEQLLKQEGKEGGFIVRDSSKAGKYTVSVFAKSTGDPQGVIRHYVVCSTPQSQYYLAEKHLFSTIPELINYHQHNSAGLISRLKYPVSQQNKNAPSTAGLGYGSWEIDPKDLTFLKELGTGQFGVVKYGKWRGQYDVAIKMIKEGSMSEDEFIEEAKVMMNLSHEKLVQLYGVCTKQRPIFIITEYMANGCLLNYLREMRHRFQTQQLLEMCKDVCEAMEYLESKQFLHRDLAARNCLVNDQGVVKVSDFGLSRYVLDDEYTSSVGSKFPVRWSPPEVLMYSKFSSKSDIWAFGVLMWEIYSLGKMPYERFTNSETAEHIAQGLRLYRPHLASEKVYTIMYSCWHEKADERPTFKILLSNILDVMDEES

In test [2] the target is BTK protein kinase (Homo sapiens, UniProt Q06187). As to the kind of experiment: In vitro enzymatic activity against BTK (ADP-Glo). In kind it is biochemical. Conditions: compound with BTK 4 hours at room temperature; ATP 10 μM, 37° C. 1 hour; values in nM. Put shortly: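 BTK (1.5 ng/μL enzyme solution) was preincubated with compound (final 10 μM to 0.003 μM) for 4 h at room temperature. Reaction ran 1 h at 37 °C with 10 μM ATP and 0.2 μg/μL poly(Glu,Tyr) 4:1 (final). ADP formed was measured by ADP-Glo luminescence, and IC50 was obtained by curve plotting.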
BTK protein kinase, sequence (Q06187 whole entry): as above
In general terms: ADP-Glo turns the ADP formed in a reaction into a luminescent signal.

Test [3] addresses T1, BTK C481S (Homo sapiens, UniProt Q06187, C481S).
T1 construct: made in house; host or cells: SF9 insect cells
Kind of test: Btk cell-free kinase assay, BTK C481S mutant protein. In kind it is biochemical. The following applies: compound 30 mins at room temperature, then 100 μM ATP 20 min at 37° C.; read-out: EC50 against BTK C481S.
Source text: as §1

The subject of test [4] is phosphorylation of tyrosine Y223 on Btk. As to the kind of experiment: Effects on BTK Y223 and downstream signaling pathway proteins in cells (anti-IgM stimulation). The test is classed as cell-based, human. Conditions: Compound 1 in MEC-2, Pfeiffer, Ramos, TMD8, U2932; Compound 35 in MEC-1; 4 hours, then anti-IgM 10 mins. An excerpt: By assaying a number of cellular biochemical and functional endpoints, the properties of the compounds were further characterized. […] In this experiment, PC132765 (purchased from Shanghai Haoyuan Chemexpress Co., Ltd.), CGI11746 (purchased from Shanghai Haoyuan Chemexpress Co., Ltd.) and Compound 6 (prepared herein) were used as control (see FIGS. 2a-2f).
Effects of the compounds on phosphorylation of BTKY223, BTKY551, PLCγ1Y783, PLCγ2Y759, PLCγ2Y1217, P—NF-κB P65, P-AKT Ser473, Erk Thr202/Tyr204 and the like were determined (FIGS. 2a-2f).

The test system of test [5] is diffuse large B-cell lymphoma cell lines TMD8. As to the kind of experiment: Cell proliferation (Cell Titer-Glo), TMD8. The test is classed as cell-based. Conditions: Homo sapiens, TMD8, 72 h, read-out: Effects on cell proliferation (GI50). On the technique in general: In ATP-based viability assays light output follows the ATP content of the culture.
Source text: The following cells were adopted in the example: acute myelocytic leukemia cell strains (acute myelocytic leukemia, AML) HL-60, B-lymphoma cell Ramos, colon cancer cells HCT116, leukemic cells K562, B-cell lymphoma cells U2932, diffuse large B-cell lymphoma cell line OCI-LY10, diffuse histiocytic lymphoma cells SU-DHL-2, diffuse large B-cell lymphoma cell lines TMD8, leukemia cell OCI-AML-3, acute promyelocytic leukemia cell line NB-4 (Lu+), MDS-RAEB (myelodysplastic syndrome—excessive blasts) cell lines SKM-1, human leukocyte leukemia cells HEL, acute myeloid leukemia cell lines (acute myelocytic leukemia, AML) U937, acute myeloid leukemia cell lines (acute myelocytic leukemia, AML) MOLM14, acute myeloid leukemia cell lines (acute myelocytic leukemia, AML) MOLM13, acute myeloid leukemia cell lines (acute myelocytic leukemia, AML) M-07e, acute myeloid leukemia cell lines (acute myelocytic leukemia, AML) MV4-11, acute myeloid leukemia cell lines (acute myelocytic leukemia, AML) MOLM16, diffuse large B-cell lymphoma cell lines Pfeiffer, multiple myeloma cell lines (multiple myeloma) RPM18226, bone marrow plasma cell tumor cells AMO-1, mouse pro-B cells BaF3, all purchased from ATCC.
In this example different concentrations (0.000508 μM, 0.00152 μM, 0.00457 μM, 0.0137 μM, 0.0411 μM, 0.123 μM, 0.370 μM, 1.11 μM, 3.33 μM, 10 μM) of Compound 1 and Compound 6 were respectively added into the above cells which were then cultured for 72 hours. The number of viable cells was determined via quantitative determination of ATP in living cells by using Cell Titer-Glo® (Promega, the USA) Chemical Luminescent Cell Viability Assay kit.

For orientation: EC50 means the concentration needed to bring the measured effect to its halfway point. One may read the IC50 as the concentration that inhibits the measured activity by half. A lower IC50 goes with greater potency.

T1 sequence (Q06187 whole entry C481S): as the sequence (Q06187 whole entry) above, with C481S counted along it

Consider `C=CC(=O)Nc1cc(Nc2cc(-c3cccc(NC(=O)c4ccc(N(C)C)cc4)c3C)cn(C)c2=O)ccc1C(=O)N1CCOCC1` [Compound 35, N-(3-(5-((3-acrylamide-4-(morpholin-4-carbonyl)phenyl)amino)-1-methyl-6-oxo-1,6-dihydropyridin-3-yl)-2-methylphenyl)-4-(dimethylamino)benzoylamide], for which the values for the 50% effective concentration (EC50) in test [1] and in test [3] were 16 nM and 186 nM, respectively. In test [2], this compound came in with a half-inhibitory concentration (IC50) of 5 nM. Also, in test [4], the “phosphorylation of tyrosine Y223 on Btk” value was “selectively and significantly inhibit phosphorylation of tyrosine Y223 on Btk”.

As for `C=CC(=O)N1CCC[C@@H](n2nc(-c3ccc(Oc4ccccc4)cc3)c3c(N)ncnc32)C1` [PCI32765, reference compound], the GI50 in test [5] turned out to be 1 nM.

For the compound `Cc1c(NC(=O)c2ccc(C(C)(C)C)cc2)cccc1-c1cn(C)c(=O)c(Nc2ccc(C(=O)N3CCOCC3)cc2)n1` [CGI1746, reference compound], the GI50 in test [5] stood at 126 nM.

Compound `C=CC(=O)Nc1cc(Nc2cc(-c3cccc(NC(=O)c4ccc(N(C)C)cc4)c3C)cn(C)c2=O)ccc1C(=O)N1CCC(OC)CC1` [Compound 52, N-(3-(5-((3-acrylamide-4-(4-methoxypiperidin-1-carbonyl)phenyl)amino)-1-methyl-6-oxo-1,6-dihydropyridin-3-yl)-2-methylphenyl)-4-(dimethylamino)benzoylamide] came in with an IC50 in test [2] of 586 nM.

For `C=CC(=O)Nc1cc(Nc2cc(-c3cccc(NC(=O)c4cc5c(s4)CCCC5)c3C)cn(C)c2=O)ccc1N1CCN(C(C)=O)CC1` [Compound 79, N-(3-(5-((4-(4-acetylpiperazin-1-yl)-3-acrylamidephenyl)amino)-1-methyl-6-oxo-1,6-dihydropyridin-3-yl)-2-methylphenyl)-4,5,6,7-tetrahydrobenzo[b]thiophene-2-carboxamide], it took 82 nM to reach half-maximal inhibition in test [2] (IC50). Against the preceding compound, the IC50 is about 7.1-fold lower.

Compound `C=CC(=O)Nc1cc(Nc2cc(-c3cccc(NC(=O)c4ccc(C(C)(C)C)cc4)c3C)cn(C)c2=O)ccc1C(=O)N1CCN(C(=O)OC(C)(C)C)CC1` [Compound 38, tertbutyl 4-(2-acrylamide-4-((5-(3-(4-(tert-butyl)benzamide)-2-methylphenyl)-1-methyl-2-oxo-1,2-dihydropyridin-3-yl)amino)benzoyl)piperazin-1-carboxylate] gave a half-maximal inhibitory concentration (IC50) in test [2] of 85 nM. This IC50 and that of the compound before are within 1.5-fold of each other.

The compound `C=CC(=O)Nc1cc(Nc2cc(-c3cccc(NC(=O)c4cc5c(s4)CCCC5)c3C)cn(C)c2=O)ccc1N1CCC(OC)CC1` [Compound 88, N-(3-(5-((3-acrylamide-4-(4-methoxypiperidin-1-yl)phenyl)amino)-1-methyl-6-oxo-1,6-dihydropyridin-3-yl)-2-methylphenyl)-4,5,6,7-tetrahydrobenzo[b]thiophene-2-carboxamide] yielded a half-inhibitory concentration (IC50) in test [2] of 167 nM.

As for `C=CC(=O)Nc1cc(Nc2cc(-c3cccc(NC(=O)c4cc5c(s4)CCCC5)c3C)cn(C)c2=O)ccc1N1CCN(CC)CC1` [Compound 76, N-(3-(5-((3-acrylamide-4-(4-ethylpiperazin-1-yl)phenyl)amino)-1-methyl-6-oxo-1,6-dihydropyridin-3-yl)-2-methylphenyl)-4,5,6,7-tetrahydrobenzo[b]thiophene-2-carboxamide], the half-inhibitory concentration (IC50) in test [2] came out at 25 nM.
